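Following 48 hours of exposure in 96-well plates, responses at five concentrations were used to interpolate endpoints linearly. At the GI50, growth is halved. Definition used: TGI = concentration required for complete inhibition of growth.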
Tests used:
Assay in all cases: NCI anticancer screen, dose series, 48 h
DU-145 prostate = tested on: DU-145 prostate
HOP-62 NSCLC = tested on: HOP-62 NSCLC
MDA-MB-231 breast = tested on: MDA-MB-231 breast
OVCAR-5 ovarian = tested on: OVCAR-5 ovarian
OVCAR-8 ovarian = tested on: OVCAR-8 ovarian
SNB-75 CNS = tested on: SNB-75 CNS
EKVX NSCLC = tested on: EKVX NSCLC
HCC-2998 colon = tested on: HCC-2998 colon
MALME-3M melanoma = tested on: MALME-3M melanoma
RXF 393 renal = tested on: RXF 393 renal

| SMILES | TGI (DU-145 prostate) | TGI (HOP-62 NSCLC) | TGI (MDA-MB-231 breast) | TGI (OVCAR-5 ovarian) | TGI (OVCAR-8 ovarian) | TGI (SNB-75 CNS) | TGI (EKVX NSCLC) | TGI (HCC-2998 colon) | TGI (MALME-3M melanoma) | TGI (RXF 393 renal) | GI50 (EKVX NSCLC) | GI50 (HOP-62 NSCLC) | GI50 (OVCAR-5 ovarian) | GI50 (OVCAR-8 ovarian) |
| --- | --- | --- | --- | --- | --- | --- | --- | --- | --- | --- | --- | --- | --- | --- |
| COc1ccc(-c2nc3ncccn3c2-c2ccc(S(C)=O)cc2)cc1 (stereo not given) | > 100 µM | > 100 µM | > 100 µM | > 100 µM | > 100 µM | > 100 µM |  |  |  |  |  |  |  |  |
| O=C(CCN1CCCCC1CCO)Nc1ccc2c(c1)C(=O)c1ccc(NC(=O)CCN3CCCCC3CCO)cc1C2=O (stereo not given) |  | 21.4 µM |  | 61.2 µM | 15.1 µM | 9.83 µM | 27 µM | > 100 µM | 10.9 µM | 6.46 µM |  |  |  |  |
| Cc1ccc(-c2cc(-c3ccco3)nc(N)n2)o1 |  | > 100 µM |  | > 100 µM | > 100 µM | > 100 µM | > 100 µM |  | > 100 µM | > 100 µM |  |  |  |  |
| C[N+]1(C)C2Cc3ccccc3C1Cc1ccccc12 | > 100 µM | > 100 µM | > 100 µM | > 100 µM | > 100 µM |  | > 100 µM | > 100 µM | > 100 µM | > 100 µM |  |  |  |  |
| COc1ccc(C2SCC(=O)N2N=C2NC(=O)CC(=O)N2)cc1 (stereo not given) | > 100 µM | > 100 µM | > 100 µM | > 100 µM | > 100 µM | > 100 µM |  | > 100 µM | > 100 µM | > 100 µM |  |  |  |  |
| CC12CC3c4ccccc4CN1C3(c1ccccc1)OC2=O (stereo not given) | > 100 µM | > 100 µM | > 100 µM | > 100 µM | > 100 µM | > 100 µM | > 100 µM |  | > 100 µM | > 100 µM |  |  |  |  |
| CC1C(c2ccc(N(C)C)cc2)c2cc3c(cc2OC1N1CCCC1)OCO3 (stereo not given) | > 100 µM | > 78.6 µM |  | > 100 µM | > 100 µM | > 73 µM | > 100 µM | > 100 µM | > 100 µM | > 100 µM |  |  |  |  |
| CCOC(=O)CC(C)C(C#N)(OP1(=O)OC(c2ccccc2)C(C)N1C)c1ccccc1 (stereo not given) | > 100 µM | > 100 µM | > 100 µM | > 100 µM | > 100 µM |  | > 100 µM | > 100 µM | > 100 µM | > 100 µM |  |  |  |  |
| O=S(=O)(O)c1ccc(NN(c2c(O)ccc3ccccc23)S(=O)(=O)O)cc1 | > 100 µM | > 100 µM | > 100 µM | > 100 µM | > 100 µM |  | > 100 µM | > 100 µM | > 100 µM |  |  |  |  |  |
| O=c1cnn(C2OC(CO)C(O)C(F)C2O)c(=O)[nH]1 (stereo not given) | > 100 µM |  | > 100 µM | > 100 µM | > 100 µM |  | > 100 µM | > 100 µM | > 100 µM |  |  |  |  |  |
| C=CCN1C(=O)CS/C1=N\NC(=O)c1c(C)nc2sccn12 |  | > 100 µM |  | > 100 µM | > 100 µM |  | > 100 µM | > 100 µM | > 100 µM | > 100 µM |  |  |  |  |
| COc1ccc(-n2sc3ncc(-c4ccccc4)cc3c2=O)cc1 | > 100 µM | > 100 µM |  | 74 µM | > 100 µM | > 100 µM | > 100 µM | > 100 µM |  | > 100 µM |  |  |  |  |
| COc1ccc2c(c1O)-c1c(OC)c(OC)cc3c1[C@H](C2)[N+](C)(C)CC3 | > 100 µM |  | > 100 µM | > 100 µM | > 100 µM | > 100 µM | > 100 µM | > 100 µM | > 100 µM |  |  |  |  |  |
| CN1CC(c2ccccc2)=Cc2c1ccc(N)c2N=N |  | > 100 µM | > 100 µM | > 100 µM | > 100 µM | > 100 µM | > 100 µM | > 100 µM | > 100 µM |  |  |  |  |  |
| O=C(NCCNCCO)N/N=C/c1cccc([N+](=O)[O-])c1 |  | > 100 µM |  | > 100 µM | > 100 µM | > 100 µM |  |  | > 100 µM | > 100 µM |  |  |  |  |
| NCCC1(N)CCNCC1 | > 100 µM |  | > 100 µM | > 100 µM | > 100 µM | > 100 µM | > 100 µM |  | > 100 µM | > 100 µM |  |  |  |  |
| COc1ccc(C[C@@H]2CN(C(=O)c3ccccc3)[C@H](Cc3ccc(O)cc3)CN2C(=O)c2ccccc2)cc1Br | > 100 µM | > 100 µM |  | > 100 µM | > 100 µM | > 100 µM | > 100 µM | > 100 µM | > 100 µM |  |  |  |  |  |
| Cc1c(C)c(C)c(-n2c(=O)n(C)c(=O)n2C(C)(C)C)c(C)c1C | > 100 µM |  | > 100 µM | > 100 µM |  | > 100 µM |  | > 100 µM |  | > 100 µM |  |  |  |  |
| C=C1CC2CC[C@@]34C[C@@H]5O[C@@H]6C(O[C@H]7CC[C@H](CC(=O)OC8[C@@H](C)C9OC%10C[C@]%11(C[C@@H]%12O[C@@]%13(C[C@@H](C)[C@@H]%12O%11)C[C@H](C)[C@@H]%11OC%12CC(C(O)CO)OC%12C[C@@H]%11O%13)OC%10CC9O[C@H]8C[C@H]8O[C@@H](CC[C@@H]1O2)C[C@@H](C)C8=C)O[C@@H]7[C@@H]6O3)C5O4 (stereo not given in full) |  |  |  | > 1.48 µM | 0.0305 µM | 0.00367 µM | > 1.48 µM | 0.00865 µM | 0.00977 µM | 0.00451 µM | < 0.000148 µM | 0.000174 µM | > 1.48 µM | < 0.000148 µM |
| Oc1ccc(-c2cc(-c3c(O)cc(O)cc3O)on2)cc1 | > 100 µM | > 100 µM | > 100 µM | > 100 µM | > 100 µM | > 100 µM | > 100 µM | > 100 µM | > 100 µM |  |  |  |  |  |
| CCOn1cc(C[C@@]2(O)C(=O)OC3[C@@H](O)CO[C@@]32O)c2ccccc21 (stereo not given in full) | > 100 µM | > 100 µM | > 100 µM | > 100 µM | > 100 µM | > 100 µM | > 100 µM |  | > 100 µM | > 100 µM |  |  |  |  |
| COC(=O)C(=O)C(C(=O)C(=O)Nc1ccccc1C(=O)OC)c1nc2ccc(C(=O)c3ccccc3)cc2[nH]c1=O (stereo not given) |  | > 100 µM | > 100 µM | > 100 µM | > 100 µM | > 100 µM | > 100 µM |  | > 100 µM | > 100 µM |  |  |  |  |
| CC1=C/C(=C(\c2ccc(N(C)C)cc2)c2ccc([N+](C)(C)C)cc2)C=CC1=[N+](C)C |  | 71.5 µM |  | 69 µM | 69.8 µM | 10.6 µM | 15.8 µM | 48.7 µM | 32.3 µM | 25.4 µM |  |  |  |  |
